# Measured values published in ChEMBL document CHEMBL1124763, “Nucleoside conjugates. 11. Synthesis and antitumor activity of 1-beta-D-arabinofuranosylcytosine and cytidine conjugates of thioether lipids” (1990).
# Tests used:
# Mus musculus [1] = assay: Survival time of treated mice for antitumor activity against Ip implanted L1210 / 0 lymphoid leukemia in mice at a dose of 100 mg/kg per day after treatment 1,5,9;25/8; details: route intraperitoneal
# Mus musculus [2] = assay: Range of survival days for antitumor activity against Ip implanted L1210 / 0 lymphoid leukemia in mice at a dose of 400 mg/kg per day after treatment 0;range is 14->45; details: route intraperitoneal
# Mus musculus [3] = assay: Survival time treated for antitumor activity against Ip implanted L1210 / 0 lymphoid leukemia in mice at a dose of 300 mg/kg per day after treatment 1;33/7; details: route intraperitoneal
# Mus musculus [4] = assay: Increase of life span was determined against Ip implanted L1210 / 0 lymphoid leukemia in mice at a dose of 200 mg/kg per day after treatment 1; type: functional; details: L1210/0, ip, route intraperitoneal
# Mus musculus [5] = assay: Increase of life span was determined against Ip implanted L1210 / 0 lymphoid leukemia in mice at a dose of 100 mg/kg per day after treatment 1,8,15,22; type: functional; details: L1210/0, ip, route intraperitoneal
# Mus musculus [6] = assay: Survival time treated for antitumor activity against Ip implanted L1210 / 0 lymphoid leukemia in mice at a dose of 400 mg/kg per day;>42.5/7; details: route intraperitoneal
# Mus musculus [7] = assay: Increase of life span was determined against Ip implanted L1210 / 0 lymphoid leukemia in mice at a dose of 400 mg/kg per day after treatment -1; type: functional; details: L1210/0, ip, route intraperitoneal
# Mus musculus [8] = assay: Increase of life span was determined against Ip implanted L1210 / 0 lymphoid leukemia in mice at a dose of 400 mg/kg per day after treatment 1; type: functional; details: L1210/0, ip, route intraperitoneal
# Mus musculus [9] = assay: Range of survival days for antitumor activity against Ip implanted L1210 / 0 lymphoid leukemia in mice at a dose of 200 mg/kg per day after treatment 5;range is 15-16; type: functional; details: route intraperitoneal
# Mus musculus [10] = assay: Range of survival days for antitumor activity against Ip implanted L1210 / 0 lymphoid leukemia in mice at a dose of 400 mg/kg per day after treatment 1;range is 9->45; type: functional; details: route intraperitoneal
# Mus musculus [11] = assay: Survival time of treated mice for antitumor activity against Ip implanted L1210 / 0 lymphoid leukemia in mice at a dose of 400 mg/kg per day after treatment 1;29.5/7; details: route intraperitoneal
# Mus musculus [12] = assay: Range of survival days for antitumor activity against Ip implanted L1210 / 0 lymphoid leukemia in mice at a dose of 400 mg/kg per day after treatment -1;range is 12->45; type: functional; details: route intraperitoneal
# Mus musculus [13] = assay: Range of survival days for antitumor activity against Ip implanted L1210 / 0 lymphoid leukemia in mice at a dose of 100 mg/kg per day after treatment 1,8,15,22;range is 16-32; type: functional; details: route intraperitoneal
# Mus musculus [14] = assay: Survival time treated for antitumor activity against Ip implanted L1210 / 0 lymphoid leukemia in mice at a dose of 100 mg/kg per day after treatment 1,8,15,22;24/7; details: route intraperitoneal
# Mus musculus [15] = assay: Range of survival days for antitumor activity against Ip implanted L1210 / 0 lymphoid leukemia in mice at a dose of 200 mg/kg per day after treatment 1,15;range is 22-32; type: functional; details: route intraperitoneal
# Mus musculus [16] = assay: Range of survival days for antitumor activity against Ip implanted L1210 / 0 lymphoid leukemia in mice at a dose of 200 mg/kg per day after treatment 1,8,15,22;range is 14->45; type: functional; details: route intraperitoneal
# Mus musculus [17] = assay: Range of survival days for antitumor activity against Ip implanted L1210 / ara-C (I) lymphoid leukemia in mice at a dose of 133 mg/kg per day; type: functional; details: route intraperitoneal
# Mus musculus [18] = assay: Range of survival days for antitumor activity against Ip implanted L1210 / ara-C (II) lymphoid leukemia in mice at a dose of 300 mg/kg per day; type: functional; details: route intraperitoneal
# Mus musculus [19] = assay: Survival time treated for antitumor activity against Ip implanted L1210 / 0 lymphoid leukemia in mice at a dose of 200 mg/kg per day after treatment 1;32/7; details: route intraperitoneal
smiles,measurement,setting,value
CCCCCCCCCCCCCCCCCCSCC(COP(=O)(O)OP(=O)(O)OC[C@H]1O[C@@H](n2ccc(N)nc2=O)[C@@H](O)[C@@H]1O)OC(=O)CCCCCCCCCCCCCCC (mixture of isomers),survival time,Mus musculus [1],25 days
same,Range of survival days,Mus musculus [2],>14
same,survival time,Mus musculus [3],33 days
same,ILS at 200 mg/kg/day,Mus musculus [4],357%
same,ILS at 100 mg/kg/day,Mus musculus [5],243%
same,survival time,Mus musculus [6],> 42.5 days
same,ILS at 400 mg/kg/day,Mus musculus [7],207%
same,ILS at 400 mg/kg/day,Mus musculus [8],321%
same,Range of survival days,Mus musculus [9],15
same,Range of survival days,Mus musculus [10],>9
same,survival time,Mus musculus [11],29.5 days
same,Range of survival days,Mus musculus [12],>12
same,Range of survival days,Mus musculus [13],16
same,survival time,Mus musculus [14],24 days
same,Range of survival days,Mus musculus [15],22
same,Range of survival days,Mus musculus [16],>14
same,Range,Mus musculus [17],>45
same,Range,Mus musculus [18],8
same,survival time,Mus musculus [19],32 days
